Results published in patent publication US10351539B2, “Macrocyclic complexes, their process of preparation and use as PET imaging agents” (INSTITUT NATIONAL DE LA SANTE ET DE LA RECHERCHE MEDICALE …, priority 2014, dated 2019).

Assay: Biodistribution in healthy and SRC bearing rats at 1 h after i.v. injection of radiolabelled compounds
Format: in vivo
Conditions: mean ± SD (n = 3); for Articular Cartilage / Bladder / Blood / Kidney / Muscle / Liver: healthy and SRC bearing rats; for Liver: ND: at undetectable levels; for Tumor: SRC (Swarm Rat Chondrosarcoma) bearing rats
Protocol: Quantitative biodistribution of radiolabelled compounds was determined in rats: healthy animals as well as rats with primary grade II orthotopic chondrosarcoma at stage Day-30 after induction. The chondrosarcoma model was the Swarm Rat Chondrosarcoma model (SRC) implanted in paratibial location. Radiolabelled compounds (5-10 Mbq/animal) were i.v. administered in the caudal vein of animals being anesthetized of mixture of ketamine (58 mg/kg i.p.) (Imalgéne 500®) and xylazine (6 mg/kg i.p.) (Rompun® 2%, Bayer, France). One hour after injection, animals were then sacrificed by CO2 inhalation, dissected and organs of interest removed, weighed and their radioactivity counted using a gamma counter (Model 1480 Wizard, Perkin Elmer Life Sciences, Boston, USA). Organs collected were blood, muscle, knee, kidneys, liver, thoracic ribs, bladder for both healthy and chondrosarcoma bearing rats. For SRC animals, tumour was also sampled. After radioactive decay correction, results were expressed for each organ as % injected dose per gram (% ID/g) and averaged per group.

CC[N+](CC)(CC)CCCN1CCCN2CCN(CCCN(CC(=O)OC(C)(C)C)CC1)CC2.[64Cu+2] [^64Cu-13, [^64Cu]-3-(8-(2-tert-Butoxy-2-oxoethyl)-1,5,8,12-tetraazabicyclo[10.2.2]hexadecan-5-yl)-N,N,N-triethylpropan-1-aminium copper(II)]
Articular Cartilage: 0.16 ± 0.06 % ID/g | Bladder: 11.83 % ID/g | Blood: 0.07 ± 0.01 % ID/g | Kidney: 1.06 ± 0.66 % ID/g | Muscle: 0.03 ± 0.01 % ID/g | Liver: 0.06 ± 0.01 % ID/g

CC[N+](CC)(CC)CCCN1CCCN2CCN(CCCN(CC(=O)O)CC1)CC2.[64Cu+2] [^64Cu-14, [^64Cu]-3-(8-(Carboxymethyl)-1,5,8,12-tetraazabicyclo[10.2.2]hexadecan-5-yl)-N,N,N-triethylpropan-1-aminium copper(II)]
Articular Cartilage: 0.11 ± 0.02 % ID/g | Bladder: 14.71 % ID/g | Blood: 0.09 ± 0.04 % ID/g | Kidney: 0.73 ± 0.22 % ID/g | Muscle: 0.04 ± 0.00 % ID/g | Liver: 0.06 ± 0.02 % ID/g

CC[N+](CC)(CC)CCCN1CCCNCCN(Cc2ccccn2)CCCNCC1.[64Cu+2] [^64Cu-27, [^64Cu]—N,N,N-Triethyl-3-(8-(pyridin-2-ylmethyl)-1,4,8,11-tetraazacyclotetradecan-1-yl)propan-1-aminium copper(II)]
Tumor: 1.4 ± 0.07 % ID/g | Articular Cartilage: 1.5 ± 0.4 % ID/g | Bladder: 30.5 ± 10.9 % ID/g | Blood: 0.4 ± 0.07 % ID/g | Kidney: 7.6 ± 4.6 % ID/g | Muscle: 0.43 ± 0.15 % ID/g | Liver: 1.2 ± 0.4 % ID/g

CC[N+](CC)(CC)CCCN1CCCN(Cc2ccccn2)CCNCCCN(Cc2ccccn2)CC1.[64Cu+2] [^64Cu-30, [^64Cu]-3-(4,11-Bis(pyridin-2-ylmethyl)-1,4,8,11-tetraazacyclotetradecan-1-yl)-N,N,N-triethylpropan-1-aminium copper(II)]
Tumor: 4.2 ± 0.6 % ID/g | Articular Cartilage: 2.7 ± 0.4 % ID/g | Bladder: 25.2 ± 10.6 % ID/g | Blood: 0.7 ± 0.2 % ID/g | Kidney: 9.2 ± 0.9 % ID/g | Muscle: 0.80 ± 0.4 % ID/g
